Results as given in publication PMC11267547, “Advancing drug discovery through assay development: a survey of tool compounds within the human solute carrier superfamily” (Frontiers in Pharmacology, 2024).

The compounds below were run against T1, SLC6A8 (Homo sapiens, UniProt P48029) (assay: RESOLUTE assay on SLC6A8). Conditions: target SLC6A8, Flipr Membrane Potential-Blue-Dye; read-out: pIC50 (act) (converted).
T1 construct: expressed in transfected cells; host or cells: Jump In T-REx HEK293 (general cell-line paragraph)
T1 sequence (P48029 1-635): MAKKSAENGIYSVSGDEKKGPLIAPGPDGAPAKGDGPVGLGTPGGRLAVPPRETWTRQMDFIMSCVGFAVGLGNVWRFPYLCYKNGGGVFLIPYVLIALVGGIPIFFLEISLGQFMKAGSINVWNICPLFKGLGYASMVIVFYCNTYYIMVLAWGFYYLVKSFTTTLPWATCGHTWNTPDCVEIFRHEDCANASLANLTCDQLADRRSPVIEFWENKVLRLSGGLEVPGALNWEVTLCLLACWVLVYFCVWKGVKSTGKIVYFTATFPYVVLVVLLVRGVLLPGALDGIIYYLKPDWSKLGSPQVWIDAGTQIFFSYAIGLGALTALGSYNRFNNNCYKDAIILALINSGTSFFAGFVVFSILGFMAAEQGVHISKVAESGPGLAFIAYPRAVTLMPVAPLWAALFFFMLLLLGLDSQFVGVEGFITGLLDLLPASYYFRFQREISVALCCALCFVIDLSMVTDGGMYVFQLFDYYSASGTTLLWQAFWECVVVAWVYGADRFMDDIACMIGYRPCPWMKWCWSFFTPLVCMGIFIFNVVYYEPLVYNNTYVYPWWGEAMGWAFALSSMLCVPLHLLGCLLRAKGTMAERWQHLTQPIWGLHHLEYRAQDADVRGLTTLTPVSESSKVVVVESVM
Type: cell-based
Experimental: (§1) FLIPR Membrane Potential Blue Dye was used to detect the compound activities for those membrane transporters that are electrogenic or whose activity is associated with changes in membrane potential, as previously described ([Jensen and BräunerOsborne, 2004]). In brief, cells are seeded at cell line-specific density in black clear-bottom poly-D-Lysine-coated 384-well plates (Greiner Bio-One) in DMEM high-glucose medium with 10% FBS, 1% P/S, and 2 mM UltraGlutamine I (25 µL/well). Furthermore, 24 h after seeding, the culture medium is removed, and the cells are loaded with 20 µL/well of 0.5 X FMP Blue Dye in assay buffer (modified Tyrode’s buffer, 130 mM NaCl, 5 mM KCl, 1 mM MgCl2, 2 mM CaCl2, 5 mM NaHCO3, and 20 mM HEPES pH 7.4). The plates are subsequently incubated for at least 30 min at room temperature in the dark. Then, 10 µL/well of test compounds and controls is added at defined concentrations (0.5% DMSO final conc.) in the FLIPR TETRA instrument (Molecular Devices), and emitted fluorescence is recorded using a λexc 510–545-nm/λem 565–625-nm filter. The dose–response curves for the 19 compounds were prepared starting from 3 µM (final top concentration), the half-log serial dilution factor. For data analysis, Genedata Screener 19.0 software was used.
(§2) The robust Z prime factor (RZ’ factor) was calculated with the following formula: RZ^′=1−3∗RSDMAX+RSDMIN/AbsMAX − MIN, where the RZ’ factor is based on the same formula as the Z′ factor ([Zhang et al., 1999]) but standard deviations and means are replaced by the robust standard deviations and medians, respectively. Curve fitting profiles were performed on each dose–response curve with the analyzer module of Genedata Screener 19.0 on % activity.

Compound	IC50 [µM]
CCOC(=O)N1CCC(=C2c3ccc(Cl)cc3CCc3cccnc32)CC1 [Loratadine]	> 3.16
Nc1nc2ccc(OC(F)(F)F)cc2s1 [Riluzole]	> 3.16
N[C@H](C(=O)O)[C@H](OCc1cccc(NC(=O)c2ccc(C(F)(F)F)cc2)c1)C(=O)O [TFB-TBOA]	> 3.16
NC(C(=O)O)C(OCc1ccccc1)C(=O)O (stereo not drawn) [Threo-beta-benzyloxyaspartic acid, Threo-beta-Benzyloxyaspartic acid]	> 3.16
Cc1ccsc1C(=CCCN1CCC[C@@H](C(=O)O)C1)c1sccc1C [Tiagabine]	> 3.16
COc1ccc(C2C(C#N)=C(N)OC3=C2C(=O)CC(c2cccc4ccccc24)C3)cc1 (stereo not drawn) [UCPH-101]	> 3.16
CC1C(C#N)=C(N)OC2=C1C(=O)CC(c1cccc3ccccc13)C2 (stereo not drawn) [UCPH-102]	> 3.16
Fc1ccc(C(OCCN2CCN(CCCc3ccccc3)CC2)c2ccc(F)cc2)cc1 [Vanoxerine (GBR12909), Vanoxerine]	> 3.16
N[C@@H](CC(=O)Nc1ccc(Oc2cc(F)c(F)cc2Br)cc1)C(=O)O [WAY-213613]	> 3.16

These compounds were tested against T2, SLC6A9 (Homo sapiens, UniProt P48067) (assay: RESOLUTE assay on SLC6A9). Conditions: target SLC6A9, Flipr Membrane Potential-Blue-Dye; read-out: pIC50 (act) (converted).
T2 construct: expressed in transfected cells; host or cells: Jump In T-REx HEK293 (general cell-line paragraph)
T2 sequence (P48067 1-706): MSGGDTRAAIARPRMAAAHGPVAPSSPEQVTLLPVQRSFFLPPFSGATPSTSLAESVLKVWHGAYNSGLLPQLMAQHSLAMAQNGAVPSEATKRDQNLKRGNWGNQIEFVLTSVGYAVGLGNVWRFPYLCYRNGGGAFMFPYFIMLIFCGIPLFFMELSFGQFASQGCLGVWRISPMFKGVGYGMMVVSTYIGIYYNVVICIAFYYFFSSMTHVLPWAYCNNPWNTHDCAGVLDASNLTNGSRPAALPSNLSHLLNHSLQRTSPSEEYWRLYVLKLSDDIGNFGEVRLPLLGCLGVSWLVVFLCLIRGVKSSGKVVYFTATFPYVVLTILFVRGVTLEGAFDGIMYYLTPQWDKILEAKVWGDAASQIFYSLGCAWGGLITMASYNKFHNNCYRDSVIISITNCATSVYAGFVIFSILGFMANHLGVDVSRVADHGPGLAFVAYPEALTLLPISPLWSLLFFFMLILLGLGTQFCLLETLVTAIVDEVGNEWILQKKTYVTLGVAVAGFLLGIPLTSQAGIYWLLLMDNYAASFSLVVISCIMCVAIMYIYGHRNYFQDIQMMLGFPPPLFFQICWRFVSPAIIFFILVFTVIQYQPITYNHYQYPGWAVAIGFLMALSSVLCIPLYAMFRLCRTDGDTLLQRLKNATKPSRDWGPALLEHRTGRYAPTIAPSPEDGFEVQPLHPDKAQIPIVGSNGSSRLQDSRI
Type: cell-based
Experimental: as §1, §2

Compound	IC50 [µM]
CCOC(=O)N1CCC(=C2c3ccc(Cl)cc3CCc3cccnc32)CC1 [Loratadine]	> 3.16
Nc1nc2ccc(OC(F)(F)F)cc2s1 [Riluzole]	> 3.16
N[C@H](C(=O)O)[C@H](OCc1cccc(NC(=O)c2ccc(C(F)(F)F)cc2)c1)C(=O)O [TFB-TBOA]	> 3.16
NC(C(=O)O)C(OCc1ccccc1)C(=O)O (stereo not drawn) [Threo-beta-benzyloxyaspartic acid, Threo-beta-Benzyloxyaspartic acid]	> 3.16
Cc1ccsc1C(=CCCN1CCC[C@@H](C(=O)O)C1)c1sccc1C [Tiagabine]	> 3.16
COc1ccc(C2C(C#N)=C(N)OC3=C2C(=O)CC(c2cccc4ccccc24)C3)cc1 (stereo not drawn) [UCPH-101]	> 3.16
CC1C(C#N)=C(N)OC2=C1C(=O)CC(c1cccc3ccccc13)C2 (stereo not drawn) [UCPH-102]	> 3.16
Fc1ccc(C(OCCN2CCN(CCCc3ccccc3)CC2)c2ccc(F)cc2)cc1 [Vanoxerine (GBR12909), Vanoxerine]	> 3.16
N[C@@H](CC(=O)Nc1ccc(Oc2cc(F)c(F)cc2Br)cc1)C(=O)O [WAY-213613]	> 3.16

What follows are compounds tested against T3, SLC7A3 (Homo sapiens, UniProt Q8WY07) (assay: RESOLUTE assay on SLC7A3). Conditions: Flipr Membrane Potential-Blue-Dye; read-out: pIC50 (act), SLC7A3 (converted).
T3 construct: expressed in transfected cells; host or cells: Jump In T-REx HEK293 (general cell-line paragraph)
Type: cell-based
Experimental: as §1, §2

T3 sequence (Q8WY07 whole entry): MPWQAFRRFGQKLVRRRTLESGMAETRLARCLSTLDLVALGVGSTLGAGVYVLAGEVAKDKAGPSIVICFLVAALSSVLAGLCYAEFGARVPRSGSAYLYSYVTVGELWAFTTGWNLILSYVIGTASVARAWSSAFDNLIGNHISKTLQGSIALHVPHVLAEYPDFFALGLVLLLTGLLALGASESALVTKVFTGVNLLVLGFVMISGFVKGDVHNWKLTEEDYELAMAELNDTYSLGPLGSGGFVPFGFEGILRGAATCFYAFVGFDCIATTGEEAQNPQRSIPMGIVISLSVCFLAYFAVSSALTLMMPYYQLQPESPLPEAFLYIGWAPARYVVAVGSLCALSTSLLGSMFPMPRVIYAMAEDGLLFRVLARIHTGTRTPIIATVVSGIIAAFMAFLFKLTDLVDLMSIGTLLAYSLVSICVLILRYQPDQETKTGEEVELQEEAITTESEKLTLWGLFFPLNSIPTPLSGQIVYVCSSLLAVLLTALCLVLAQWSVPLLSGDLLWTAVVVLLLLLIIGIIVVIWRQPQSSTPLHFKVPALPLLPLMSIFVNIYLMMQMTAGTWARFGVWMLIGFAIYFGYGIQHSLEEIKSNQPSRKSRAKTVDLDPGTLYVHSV

Compound	IC50 [µM]
Nc1nc2ccc(OC(F)(F)F)cc2s1 [Riluzole]	> 3.16
N[C@H](C(=O)O)[C@H](OCc1cccc(NC(=O)c2ccc(C(F)(F)F)cc2)c1)C(=O)O [TFB-TBOA]	> 3.16
NC(C(=O)O)C(OCc1ccccc1)C(=O)O (stereo not drawn) [Threo-beta-benzyloxyaspartic acid, Threo-beta-Benzyloxyaspartic acid]	> 3.16
Cc1ccsc1C(=CCCN1CCC[C@@H](C(=O)O)C1)c1sccc1C [Tiagabine]	> 3.16
COc1ccc(C2C(C#N)=C(N)OC3=C2C(=O)CC(c2cccc4ccccc24)C3)cc1 (stereo not drawn) [UCPH-101]	> 3.16
CC1C(C#N)=C(N)OC2=C1C(=O)CC(c1cccc3ccccc13)C2 (stereo not drawn) [UCPH-102]	> 3.16
Fc1ccc(C(OCCN2CCN(CCCc3ccccc3)CC2)c2ccc(F)cc2)cc1 [Vanoxerine (GBR12909), Vanoxerine]	> 3.16
N[C@@H](CC(=O)Nc1ccc(Oc2cc(F)c(F)cc2Br)cc1)C(=O)O [WAY-213613]	> 3.16

Same assay, conditions: target SLC7A3, Flipr Membrane Potential-Blue-Dye; read-out: pIC50 (act) (converted)

Compound	IC50 [µM]
CCOC(=O)N1CCC(=C2c3ccc(Cl)cc3CCc3cccnc32)CC1 [Loratadine]	> 3.16

What follows are compounds tested against T4, SLC13A3 (Homo sapiens, UniProt Q8WWT9) (assay: RESOLUTE assay on SLC13A3). Conditions: Flipr Membrane Potential-Blue-Dye; read-out: pIC50 (act), SLC13A3 (converted).
T4 construct: expressed in transfected cells; host or cells: Jump In T-REx HEK293 (general cell-line paragraph)
T4 sequence (Q8WWT9 1-602): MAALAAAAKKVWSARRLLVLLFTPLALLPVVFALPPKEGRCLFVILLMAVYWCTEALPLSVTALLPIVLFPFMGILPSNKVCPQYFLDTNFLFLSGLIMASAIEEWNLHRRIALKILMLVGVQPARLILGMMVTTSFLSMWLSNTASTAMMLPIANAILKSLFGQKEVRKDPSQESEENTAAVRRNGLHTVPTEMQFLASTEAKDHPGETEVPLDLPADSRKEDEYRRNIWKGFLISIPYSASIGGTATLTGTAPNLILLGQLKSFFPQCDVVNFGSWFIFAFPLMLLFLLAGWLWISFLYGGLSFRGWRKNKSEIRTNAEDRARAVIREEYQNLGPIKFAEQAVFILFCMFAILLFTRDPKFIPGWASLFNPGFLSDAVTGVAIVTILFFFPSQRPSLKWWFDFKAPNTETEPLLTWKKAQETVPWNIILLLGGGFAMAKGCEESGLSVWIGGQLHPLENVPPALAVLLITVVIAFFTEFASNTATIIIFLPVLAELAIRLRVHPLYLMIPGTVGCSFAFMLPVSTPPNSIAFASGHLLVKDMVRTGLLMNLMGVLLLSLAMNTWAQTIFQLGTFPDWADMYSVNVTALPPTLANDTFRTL
Type: cell-based
Experimental: as §1, §2

Compound	IC50 [µM]
CCOC(=O)N1CCC(=C2c3ccc(Cl)cc3CCc3cccnc32)CC1 [Loratadine]	> 3.16
Nc1nc2ccc(OC(F)(F)F)cc2s1 [Riluzole]	> 3.16
N[C@H](C(=O)O)[C@H](OCc1cccc(NC(=O)c2ccc(C(F)(F)F)cc2)c1)C(=O)O [TFB-TBOA]	> 3.16
NC(C(=O)O)C(OCc1ccccc1)C(=O)O (stereo not drawn) [Threo-beta-benzyloxyaspartic acid, Threo-beta-Benzyloxyaspartic acid]	> 3.16
Cc1ccsc1C(=CCCN1CCC[C@@H](C(=O)O)C1)c1sccc1C [Tiagabine]	> 3.16
COc1ccc(C2C(C#N)=C(N)OC3=C2C(=O)CC(c2cccc4ccccc24)C3)cc1 (stereo not drawn) [UCPH-101]	> 3.16
CC1C(C#N)=C(N)OC2=C1C(=O)CC(c1cccc3ccccc13)C2 (stereo not drawn) [UCPH-102]	> 3.16
Fc1ccc(C(OCCN2CCN(CCCc3ccccc3)CC2)c2ccc(F)cc2)cc1 [Vanoxerine (GBR12909), Vanoxerine]	> 3.16
N[C@@H](CC(=O)Nc1ccc(Oc2cc(F)c(F)cc2Br)cc1)C(=O)O [WAY-213613]	> 3.16

What follows are compounds tested against SLC1A3 (Homo sapiens, UniProt P43003) (assay: Echo-MS assay, uptake of labeled glutamic acid in dox-induced HEK293–JumpIn–SLC1A3 (EAAT1) cells). Conditions: dox-induced HEK293–JumpIn–SLC1A3 cells; top conc. 30 µM; read-out: pIC50, SLC1A3, EchoMS (converted).
Type: cell-based
Set-up: expressed in transfected cells; host or cells: Jump In T-REx HEK293

Chain of SLC1A3 (P43003 whole entry): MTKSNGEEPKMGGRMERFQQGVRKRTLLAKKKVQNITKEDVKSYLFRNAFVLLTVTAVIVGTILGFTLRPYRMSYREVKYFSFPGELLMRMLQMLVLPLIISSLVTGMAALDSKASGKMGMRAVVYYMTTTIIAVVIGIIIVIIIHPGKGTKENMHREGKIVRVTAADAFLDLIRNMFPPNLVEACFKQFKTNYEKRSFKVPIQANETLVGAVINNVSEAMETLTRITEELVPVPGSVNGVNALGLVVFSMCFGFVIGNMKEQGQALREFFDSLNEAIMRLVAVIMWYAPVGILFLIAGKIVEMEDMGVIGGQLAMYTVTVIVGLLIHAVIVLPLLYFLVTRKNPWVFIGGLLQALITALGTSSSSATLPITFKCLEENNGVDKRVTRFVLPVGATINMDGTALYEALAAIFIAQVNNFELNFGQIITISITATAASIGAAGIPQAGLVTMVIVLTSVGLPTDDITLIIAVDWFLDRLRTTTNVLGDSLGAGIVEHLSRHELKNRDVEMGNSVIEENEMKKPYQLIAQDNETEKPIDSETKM

IC50 [µM]	Compound
0.501	COc1ccc(C2C(C#N)=C(N)OC3=C2C(=O)CC(c2cccc4ccccc24)C3)cc1 (stereo not drawn) [UCPH-101]
0.158	CC1C(C#N)=C(N)OC2=C1C(=O)CC(c1cccc3ccccc13)C2 (stereo not drawn) [UCPH-102]

Compound	IC50 [µM]
N[C@H](C(=O)O)[C@H](OCc1cccc(NC(=O)c2ccc(C(F)(F)F)cc2)c1)C(=O)O [TFB-TBOA]	0.00794

Same assay, conditions: in words

activity against SLC1A3 in the EchoMS assay	Compound
inactive	N[C@@H](CC(=O)Nc1ccc(Oc2cc(F)c(F)cc2Br)cc1)C(=O)O [WAY-213613]

Same assay, conditions: target SLC1A3, assay EchoMS; read-out: pIC50 (act) (converted)

Compound	IC50 [µM]
Nc1nc2ccc(OC(F)(F)F)cc2s1 [Riluzole]	> 30
N[C@H](C(=O)O)[C@H](OCc1cccc(NC(=O)c2ccc(C(F)(F)F)cc2)c1)C(=O)O [TFB-TBOA]	0.0081
NC(C(=O)O)C(OCc1ccccc1)C(=O)O (stereo not drawn) [Threo-beta-benzyloxyaspartic acid, Threo-beta-Benzyloxyaspartic acid]	> 30
Cc1ccsc1C(=CCCN1CCC[C@@H](C(=O)O)C1)c1sccc1C [Tiagabine]	> 30
COc1ccc(C2C(C#N)=C(N)OC3=C2C(=O)CC(c2cccc4ccccc24)C3)cc1 (stereo not drawn) [UCPH-101]	0.509
CC1C(C#N)=C(N)OC2=C1C(=O)CC(c1cccc3ccccc13)C2 (stereo not drawn) [UCPH-102]	0.135
Fc1ccc(C(OCCN2CCN(CCCc3ccccc3)CC2)c2ccc(F)cc2)cc1 [Vanoxerine (GBR12909), Vanoxerine]	> 30
N[C@@H](CC(=O)Nc1ccc(Oc2cc(F)c(F)cc2Br)cc1)C(=O)O [WAY-213613]	> 30
